Measurements as given in publication PMC3409115, “Diverse Inhibitor Chemotypes Targeting Trypanosoma cruzi CYP51” (PLoS Neglected Tropical Diseases, 2012).
Entries after “also recorded” stand apart in the source; their conditions may differ. Like-named read-outs stand apart in the source and are kept apart here.

Legend:
[1] = molecular target: T1, T. cruzi CYP51 (Trypanosoma cruzi, UniProt Q7Z1V1); experiment: Low throughput UV-vis binding assay; conditions: for Binding to CYP51 by UV-vis titration (in words): 0.5 µM CYP51
T1 construct: had the first 21 residues upstream of K22 replaced with the fragment MAKKKKK; His6 (C); made in house
Experimental: Hit validation in the low throughput UV-vis binding assay was performed according to a previously published but somewhat modified protocol. UV-vis absorption spectra were recorded on a Cary scanning spectrophotometer (Varian) in the 1-cm path length quartz cuvette at 23°C in 100 mM potassium phosphate buffer, pH 7.5, containing 10% glycerol, with CYP51 concentration of 0.5 µM. Compound solutions used for titration were prepared in DMSO at 100 µM and added in 2-µl aliquots to each 3 ml sample using a P2 pipetman (Gilson). Binding affinity of hits was estimated using the quadratic tight-binding equation [27]: […]
where Aobs is the absorption shift determined at any ligand concentration; Amax is the maximal absorption shift obtained at saturation; KD is dissociation constant for the inhibitor-enzyme complex; S is the ligand concentration; Et is the total enzyme concentration.

[2] = tested on: T. cruzi trypomastigote strain CAI/72 in C2C12 myoblasts; experiment: Trypanocidal assay; assay type: cell-based, Trypanosoma cruzi; conditions: 14 days treatment, then one week compound-free
Experimental: Compounds cross-validated with low EC50 against T. cruzi infected cells were further evaluated to determine the “cidal” concentration at which host cells are effectively cured, using the protocol adapted from Engel et al 1998 [30]. To allow long term treatment and avoid culture overgrowth, C2C12 myoblasts were seeded at low density in 96 well plates (10^3 cells/well) and cultured with DMEM H-21 medium supplemented with low FBS concentration (1%), 25 mM HEPES, 2 mM L-glutamine, 100 U/ml penicillin and 100 µg/ml streptomycin. The cells were infected with T. cruzi trypomastigote strain CAI/72 (5 parasites/cell) for 24 h and treated with 0, 0.04, 0.12, 0.37, 1.10, 3.30 or 10 µM test compounds in 100 µl of medium for 14 days. During the course of treatment, medium supplemented with test compounds was replaced every 72 h. After 14 days, drug pressure was withdrawn and incubation continued in the compound-free medium for another week, during which cultures were monitored for reappearance of T. cruzi trypomastigotes in the supernatant.

[3] = tested on: sterol biosynthesis in T. cruzi amastigotes; experiment: Lipid analysis of T. cruzi amastigotes (GC-MS of membrane sterols); assay type: cell-based, Trypanosoma cruzi; conditions: amastigotes in C2C12 myoblasts, 24 h drug treatment, concentrations 5x below cidal; posaconazole 100 nM
Experimental: To grow intracellular amastigotes for lipid analysis, C2C12 mouse skeletal myoblasts (4×10^6 cells) cultured in 150 cm^2 flasks as described above were infected with 80×10^6 trypomastigotes for 24 h. The cultures were treated with test compounds 72 h post-infection at concentrations 5× below cidal to avoid completely killing the parasites. Posaconazole at 100 nM was used as a positive control. […] Cells were harvested 96 h post-infection and after 24 h of drug treatment. Cell detachment was initiated by brief treatment with 10 ml of 0.25% trypsin in PBS, followed promptly by replacement with 10 ml of fresh media containing FBS. Harvested cells were washed 3× with 25 ml of PBS to remove FBS and released trypomastigotes. The suspension of infected cells was then transferred to a glass tube and centrifuged at 2000 rpm for 5 min. After washing with PBS, 2 ml of chloroform-methanol solution (2∶1 ratio) was added to re-suspend the cell pellet. Organic solvents were then evaporated under N2 flow, allowing the pellet to dry.
For total lipid extraction, the dry cell pellet was treated with 2 ml chloroform for 24 h. Polar molecules were removed by washing the organic phase 3× with 3 ml water. The organic phase containing the sterols was subsequently dried on an evaporator under N2 flow. The lipids were re-suspended in 2 ml of chloroform-methanol (9∶1 ratio), washed again 3× with 3 ml water, dried under N2 flow and re-suspended in acetonitrile. After an additional wash 3× with 3 ml water, the acetonitrile was dried under an N2 stream. Extracted dry sterols were re-dissolved in hexane and derivatized with N,N-bis(trimethylsilyl)-2,2,2-trifluoroacetamide (BSTFA) (Pierce) by incubating at 37°C for at least 2 hours. Sterols as their trimethylsilyl (TMS) derivatives were analyzed by gas chromatography and mass spectrometry (GC-MS). GC-MS analysis and lipid identification were performed as described previously.

[4] = tested on: host cell (skeletal myoblasts, bovine embryo skeletal muscle or C2C12); experiment: Host cell toxicity in the cross-validation assay; assay type: cell-based; conditions: host cells in cross-validation assay, up to 10 µM

T1 sequence (Q7Z1V1 15-481, looked up, natural form): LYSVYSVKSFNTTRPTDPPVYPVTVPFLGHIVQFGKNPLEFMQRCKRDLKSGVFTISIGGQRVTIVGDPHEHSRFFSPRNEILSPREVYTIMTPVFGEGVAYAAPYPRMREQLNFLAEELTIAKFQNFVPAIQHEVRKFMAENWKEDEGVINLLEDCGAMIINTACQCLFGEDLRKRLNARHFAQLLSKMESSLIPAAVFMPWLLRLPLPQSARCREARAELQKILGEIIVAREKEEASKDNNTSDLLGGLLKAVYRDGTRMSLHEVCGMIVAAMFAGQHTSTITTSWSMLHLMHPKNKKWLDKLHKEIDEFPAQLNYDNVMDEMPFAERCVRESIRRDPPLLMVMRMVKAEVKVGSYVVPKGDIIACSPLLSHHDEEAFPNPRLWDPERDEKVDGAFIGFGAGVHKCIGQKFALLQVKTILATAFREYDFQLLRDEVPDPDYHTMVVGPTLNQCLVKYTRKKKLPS

| Compound | Binding to CYP51 by UV-vis titration (in words) [1] | Kd ([1]; UV-vis titration, 0.5 µM CYP51, quadratic tight-binding equation, lower limit of method ~5 nM, read-out: KD) | Trypanocidal concentration [2] | Effect on membrane sterol composition by GC-MS [3] | Toxicity score (highest percentage of host cell growth inhibition) [4] | Kd [1] |
| --- | --- | --- | --- | --- | --- | --- |
| Brc1ccccc1OCCCCCCn1ccnc1 [Compound 1] | at least low nanomolar binding affinity | ≤ 5 nM | 40 nM | lanosterol (f) and eburicol (h) dominated the GC-MS traces; also recorded: fecosterol (e) was completely inhibited; also recorded: suppressed sterol biosynthesis in T. cruzi amastigotes more efficiently than posaconazole | 2 (2-21-30%) |  |
| O=C(c1ccc(Cl)cc1)C(Oc1ccc(Cl)cc1)n1cncn1 (stereo not shown) [Compound 13, 2-(4-chlorophenoxy)-1-(4-chlorophenyl)-2-(1H-1,2,4-triazol-1-yl)ethanone] | binds and saturates CYP51 at equimolar 0.5 µM concentrations |  | 2500 nM | present in amounts comparable to those of 14-demethylated products; also recorded: increase in lanosterol and eburicol precursors and a concomitant decline in episterol, fecosterol and other 14-demethylated intermediates | 3 (3- 31-40%) | ≤ 5 nM |
